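Five concentrations, 48 hours, 96-well plates. Abbreviation: GI50, concentration required for 50% inhibition of growth. TGI: total growth inhibition.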
What was measured:
Experiment in all cases: DTP human tumour cell line panel, 48 h
HCC-2998 colon = tested on: HCC-2998 colon
LOX IMVI melanoma = tested on: LOX IMVI melanoma
MDA-MB-231 breast = tested on: MDA-MB-231 breast
MOLT-4 leukemia = tested on: MOLT-4 leukemia
SK-OV-3 ovarian = tested on: SK-OV-3 ovarian
U251 CNS = tested on: U251 CNS
UACC-62 melanoma = tested on: UACC-62 melanoma
UO-31 renal = tested on: UO-31 renal
HOP-62 NSCLC = tested on: HOP-62 NSCLC
SR leukemia = tested on: SR leukemia

Compound	TGI (HCC-2998 colon) [µM]	TGI (LOX IMVI melanoma) [µM]	TGI (MDA-MB-231 breast) [µM]	TGI (MOLT-4 leukemia) [µM]	TGI (SK-OV-3 ovarian) [µM]	TGI (U251 CNS) [µM]	TGI (UACC-62 melanoma) [µM]	TGI (UO-31 renal) [µM]	GI50 (HCC-2998 colon) [µM]	GI50 (HOP-62 NSCLC) [µM]	TGI (HOP-62 NSCLC) [µM]	GI50 (LOX IMVI melanoma) [µM]	GI50 (MDA-MB-231 breast) [µM]	GI50 (MOLT-4 leukemia) [µM]	GI50 (SR leukemia) [µM]	TGI (SR leukemia) [µM]	GI50 (U251 CNS) [µM]	GI50 (UACC-62 melanoma) [µM]	GI50 (UO-31 renal) [µM]	GI50 (SK-OV-3 ovarian) [µM]
C=C1C(=O)OC2C1CC(OC(C)=O)/C(C)=C/CCC1(C)OC21 (stereo unspecified)	> 100	> 100	> 100	> 100	> 100	> 100	> 100	> 100	–	–	–	–	–	–	–	–	–	–	–	–
NCCCOc1cc2ccccc2cc1C(=O)NCCCOc1cc2ccccc2cc1C(=O)Nc1ccc(Cl)cc1O	2.48	1.78	1.82	1.54	–	0.35	3.53	1.78	0.992	0.34	1.14	0.436	0.629	0.314	0.194	0.871	0.187	1.58	0.355	–
CNCCn1c(=O)c2cc(OC)c(OC)cc2c2cnc3cc4c(cc3c21)OCO4	1.79	0.1	1.67	0.0303	1.82	0.0242	–	1.21	0.0484	< 0.01	1.61	< 0.01	0.19	< 0.01	< 0.01	–	< 0.01	–	< 0.01	< 0.0104
CCc1nc(Cl)c(Cl)c(Cl)n1	> 100	> 100	–	> 100	> 100	> 100	> 100	> 100	–	–	> 100	–	–	–	–	> 100	–	–	–	–
Cc1c(Cl)cccc1NC(=O)c1cccc([N+](=O)[O-])c1O	78.6	36.3	–	46.7	> 80.2	77.5	7.74	40.5	–	–	29.3	–	–	–	–	74.8	–	–	–	–
COc1cc(C(=O)O[C@H](C(N)=O)[C@]2(C)CO2)c2cccc(C)c2c1	0.54	–	1.29	–	7.99	–	0.154	0.33	0.0257	2.23	5.35	–	0.016	–	–	–	–	0.02	0.0404	1.45
CNC(C)[C@H]1CCC2C3CC=C4C(=O)[C@@H](NC(=O)C=C(C)C)CC[C@]4(C)C3CC[C@@]21C (stereo partly specified)	3.02	2.98	4.74	3.89	9.5	11.8	3.54	3.14	0.626	1.7	3.63	1.35	1.89	1.27	–	–	2.19	1.84	1.33	2.75
COc1cc(-c2nnc3n2NC=C(C(=O)O)S3)cc(OC)c1OC	> 100	> 100	–	> 100	> 100	> 100	> 100	> 100	–	–	> 100	–	–	–	–	> 100	–	–	–	–
C[P+](C)(C)c1ccccc1	> 100	> 100	–	> 100	> 100	> 100	> 100	> 100	–	–	> 100	–	–	–	–	> 100	–	–	–	–
Cc1ccc2occ/c(=N\Nc3ccccc3)c2c1	> 100	> 100	> 100	–	> 100	> 100	> 100	> 100	–	–	> 100	–	–	–	–	> 100	–	–	–	–
COc1cc2c(cc1OC)C1Cc3cc(OC)c(OC)cc3N1CC2 (stereo unspecified)	> 100	–	–	> 100	> 100	> 100	> 100	86	–	–	84.9	–	–	–	–	> 100	–	–	–	–
C1COCCSC2=C(SCCO1)SC(=C1SC3=C(SCCOCCOCCS3)S1)S2	> 100	> 100	–	> 100	> 100	> 100	> 100	> 100	–	–	> 100	–	–	–	–	> 100	–	–	–	–
O=C(NNc1cnccn1)c1nc2cc(F)ccc2n2cccc12	> 100	–	> 100	> 100	> 100	> 100	> 100	> 100	2.88	0.364	> 100	–	0.597	0.34	0.247	> 100	0.363	0.7	0.261	0.522
CCOC(=O)c1sc(NC(=O)COc2cccc(/C=C3\CCc4cc(OC)ccc4C3=O)c2)nc1C	38.8	15.7	> 100	12.2	> 100	9.13	> 100	> 100	8.59	18.2	55.2	3.87	10.1	2.94	–	–	2.98	5.43	5.99	6.39
O=C1C=CC(=CC=C2C=CN(CCCCCCCCCCC(=O)NCCCCCCCCCCCC(=O)O)C=C2)C=C1	> 100	> 100	–	> 100	> 100	> 100	> 100	> 100	–	–	> 100	–	–	–	–	> 100	–	–	–	–
Cc1cc(NCCCCNc2ccnc3cc(Cl)ccc23)nc(Nc2ccc(C(=O)N3CCCCC3)cc2)n1	4.13	3.01	–	7.13	6.13	3.56	–	–	1.82	2.09	4.2	1.44	–	1.71	0.24	0.855	1.78	–	–	2.78
COc1ccc(/C=C/c2cnccn2)cc1OC	> 10	> 10	> 10	–	> 10	> 10	> 10	> 10	–	–	> 10	–	–	–	–	–	–	–	–	–
CC(Cl)CN1c2ccccc2Sc2ccc(Cl)cc21 (stereo unspecified)	> 10	> 10	> 10	> 10	> 10	> 10	> 10	> 10	–	–	> 10	–	–	–	–	–	–	–	–	–

Source: PubChem BioAssay (NCI)
